Biological target: T1, CDK1/Cyclin B (Homo sapiens, UniProt P06493)
T1 construct: purchased Invitrogen PR4768C
Assay: Enzymatic assay for CDK1 (FRET based LANCE Ultra kinase assay)
Type: biochemical
Details: read-out: CDK1 enzymatic activity (IC50 range)
Method in brief: (§1)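 Each CDK complex ([…]) phosphorylated 68 nM ULight-MBP peptide with ATP at Km for 60 min at 23° C., against 8 compound doses (4-fold dilutions). EDTA/Eu-anti-phospho-MBP detection, 60 min, then TR-FRET emission at 615 and 665 nm.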

T1 sequence (P06493 whole entry): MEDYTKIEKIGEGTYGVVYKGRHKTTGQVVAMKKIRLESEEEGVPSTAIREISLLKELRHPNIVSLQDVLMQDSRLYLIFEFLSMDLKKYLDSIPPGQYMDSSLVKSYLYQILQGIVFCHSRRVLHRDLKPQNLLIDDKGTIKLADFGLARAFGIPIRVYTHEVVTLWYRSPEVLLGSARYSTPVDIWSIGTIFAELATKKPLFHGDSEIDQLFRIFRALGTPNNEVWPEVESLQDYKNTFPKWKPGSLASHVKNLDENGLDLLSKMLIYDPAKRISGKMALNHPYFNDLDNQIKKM
T1 sequence (P14635 whole entry partner): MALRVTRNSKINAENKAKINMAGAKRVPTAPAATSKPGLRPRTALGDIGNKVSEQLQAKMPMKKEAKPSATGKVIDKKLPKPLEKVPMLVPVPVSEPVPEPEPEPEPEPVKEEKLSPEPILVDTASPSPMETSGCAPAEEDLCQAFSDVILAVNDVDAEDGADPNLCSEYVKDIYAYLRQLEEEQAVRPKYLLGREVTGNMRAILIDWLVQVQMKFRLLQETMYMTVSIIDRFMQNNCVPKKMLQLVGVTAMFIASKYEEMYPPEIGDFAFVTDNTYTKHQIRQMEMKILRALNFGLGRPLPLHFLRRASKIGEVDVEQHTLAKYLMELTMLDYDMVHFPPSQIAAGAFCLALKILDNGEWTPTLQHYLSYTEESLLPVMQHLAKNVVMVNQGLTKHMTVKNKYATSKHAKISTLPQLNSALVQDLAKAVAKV

Row | IC50 [nM] | SMILES
1 | > 1000 | CC(=O)NC1CCc2nn(-c3ccccc3CNc3nc(N4CCC(N)CC4)nc4c(C(C)C)cnn34)cc2C1 (centres unmarked) [Compound 150]
2 | > 1000 | CNC(=O)c1cc2cn(-c3ccccc3CNc3nc(N4CCC(N)CC4)nc4c(C(C)C)cnn34)nc2cc1C [Compound 160]
3 | > 1000 | CC(C)c1cnn2c(N[C@H](C)c3ccccc3-c3cc4ccccc4[nH]3)nc(N3CCC(N)CC3)nc12 [Compound 188]

Biological target: T2, CDK2/Cyclin A (Homo sapiens, UniProt P24941)
T2 construct: purchased Invitrogen PV6290
Assay: Enzymatic assay for CDK2 (FRET based LANCE Ultra kinase assay)
Type: biochemical
Details: read-out: CDK2 enzymatic activity (IC50 range)
Method in brief: as §1

Row | IC50 [nM] | SMILES
4 | > 1000 | CC(=O)NC1CCc2nn(-c3ccccc3CNc3nc(N4CCC(N)CC4)nc4c(C(C)C)cnn34)cc2C1 (centres unmarked) [Compound 150]
5 | 100 to 1000 | CNC(=O)c1cc2cn(-c3ccccc3CNc3nc(N4CCC(N)CC4)nc4c(C(C)C)cnn34)nc2cc1C [Compound 160]
6 | > 1000 | CC(C)c1cnn2c(N[C@H](C)c3ccccc3-c3cc4ccccc4[nH]3)nc(N3CCC(N)CC3)nc12 [Compound 188]

Biological target: T3, CDK5/p25 (Homo sapiens, UniProt Q00535)
T3 construct: purchased Invitrogen PR8543B
Assay: Enzymatic assay for CDK5 (FRET based LANCE Ultra kinase assay)
Type: biochemical
Details: read-out: CDK5 enzymatic activity (IC50 range)
Method in brief: as §1

T3 sequence (Q00535 whole entry): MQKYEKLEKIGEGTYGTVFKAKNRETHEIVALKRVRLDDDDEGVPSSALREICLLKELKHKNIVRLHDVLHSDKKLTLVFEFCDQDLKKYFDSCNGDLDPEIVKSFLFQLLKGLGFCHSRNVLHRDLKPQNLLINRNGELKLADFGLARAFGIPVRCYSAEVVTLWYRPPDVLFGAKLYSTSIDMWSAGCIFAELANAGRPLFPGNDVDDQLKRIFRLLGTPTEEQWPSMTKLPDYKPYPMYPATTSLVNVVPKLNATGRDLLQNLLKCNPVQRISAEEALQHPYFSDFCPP
T3 sequence (Q15078 99-307 partner limits assumed): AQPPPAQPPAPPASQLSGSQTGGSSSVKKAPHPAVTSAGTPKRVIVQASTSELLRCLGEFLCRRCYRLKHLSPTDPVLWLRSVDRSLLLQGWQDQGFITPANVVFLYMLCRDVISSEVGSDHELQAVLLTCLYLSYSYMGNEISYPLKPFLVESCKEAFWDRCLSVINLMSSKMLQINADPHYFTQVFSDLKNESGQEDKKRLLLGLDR

Row | IC50 [nM] | SMILES
7 | 100 to 1000 | CC(=O)NC1CCc2nn(-c3ccccc3CNc3nc(N4CCC(N)CC4)nc4c(C(C)C)cnn34)cc2C1 (centres unmarked) [Compound 150]
8 | 100 to 1000 | CNC(=O)c1cc2cn(-c3ccccc3CNc3nc(N4CCC(N)CC4)nc4c(C(C)C)cnn34)nc2cc1C [Compound 160]
9 | > 1000 | CC(C)c1cnn2c(N[C@H](C)c3ccccc3-c3cc4ccccc4[nH]3)nc(N3CCC(N)CC3)nc12 [Compound 188]

Biological target: T4, CDK7/Cyclin H/MNAT1 (Homo sapiens, UniProt P50613)
T4 construct: purchased Invitrogen PR6749B
Assay: Enzymatic assay for CDK7 (FRET based LANCE Ultra kinase assay)
Type: biochemical
Details: CDK7 over CDK1
Method in brief: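 Inhibition was measured at Km ATP by time-resolved FRET between a Eu anti-phospho antibody and a phosphorylated ULight peptide. The enzyme was the purified CDK7/cyclin complex, and data were curve-fitted.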

T4 sequence (P50613 whole entry): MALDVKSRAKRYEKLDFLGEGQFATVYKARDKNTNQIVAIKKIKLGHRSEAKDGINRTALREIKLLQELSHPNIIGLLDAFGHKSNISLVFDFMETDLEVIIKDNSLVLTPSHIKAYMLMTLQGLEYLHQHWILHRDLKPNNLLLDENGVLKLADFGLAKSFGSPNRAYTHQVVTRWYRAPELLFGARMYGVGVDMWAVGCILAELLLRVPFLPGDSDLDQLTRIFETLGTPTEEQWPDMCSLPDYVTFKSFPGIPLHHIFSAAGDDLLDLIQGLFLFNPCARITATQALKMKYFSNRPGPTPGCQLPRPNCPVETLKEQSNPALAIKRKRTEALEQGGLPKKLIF
T4 sequence (P51946 whole entry partner): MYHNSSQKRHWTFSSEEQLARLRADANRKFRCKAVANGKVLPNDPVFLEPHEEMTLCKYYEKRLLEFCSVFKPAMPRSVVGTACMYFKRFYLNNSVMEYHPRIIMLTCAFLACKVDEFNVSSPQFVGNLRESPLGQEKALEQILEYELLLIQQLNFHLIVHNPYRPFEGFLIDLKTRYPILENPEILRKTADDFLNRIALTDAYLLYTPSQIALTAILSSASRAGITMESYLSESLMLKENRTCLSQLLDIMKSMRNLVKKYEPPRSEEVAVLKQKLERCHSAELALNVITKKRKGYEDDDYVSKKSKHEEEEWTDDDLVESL
T4 sequence (P51948 whole entry partner): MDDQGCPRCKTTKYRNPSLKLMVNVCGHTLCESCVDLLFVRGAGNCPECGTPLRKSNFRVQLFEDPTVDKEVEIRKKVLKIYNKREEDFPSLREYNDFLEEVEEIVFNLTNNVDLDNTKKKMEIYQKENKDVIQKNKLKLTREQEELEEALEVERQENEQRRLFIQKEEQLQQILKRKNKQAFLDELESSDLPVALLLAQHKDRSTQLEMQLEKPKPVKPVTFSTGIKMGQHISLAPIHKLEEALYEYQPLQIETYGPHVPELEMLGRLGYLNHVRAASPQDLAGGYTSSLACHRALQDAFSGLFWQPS

Row | CDK1/CDK7: Selectivity of CDK7 inhibition over CDK1 inhibition | SMILES
10 | A (A=greater than 200 fold) | CC(=O)NC1CCc2nn(-c3ccccc3CNc3nc(N4CCC(N)CC4)nc4c(C(C)C)cnn34)cc2C1 (centres unmarked) [Compound 150]
11 | A (A=greater than 200 fold) | CNC(=O)c1cc2cn(-c3ccccc3CNc3nc(N4CCC(N)CC4)nc4c(C(C)C)cnn34)nc2cc1C [Compound 160]

Row | SMILES | CDK1/CDK7: Selectivity of CDK7 inhibition over CDK1 inhibition
12 | CC(C)c1cnn2c(N[C@H](C)c3ccccc3-c3cc4ccccc4[nH]3)nc(N3CCC(N)CC3)nc12 [Compound 188] | B (B=less than 200 fold, but greater than 20 fold)

Same assay, conditions: CDK7 over CDK2

Row | CDK2/CDK7: Selectivity of CDK7 inhibition over CDK2 inhibition | SMILES
13 | A (A=greater than 200 fold) | CC(=O)NC1CCc2nn(-c3ccccc3CNc3nc(N4CCC(N)CC4)nc4c(C(C)C)cnn34)cc2C1 (centres unmarked) [Compound 150]
14 | C (C=less than 20 fold) | CC(C)c1cnn2c(N[C@H](C)c3ccccc3-c3cc4ccccc4[nH]3)nc(N3CCC(N)CC3)nc12 [Compound 188]

Row | SMILES | CDK2/CDK7: Selectivity of CDK7 inhibition over CDK2 inhibition
15 | CNC(=O)c1cc2cn(-c3ccccc3CNc3nc(N4CCC(N)CC4)nc4c(C(C)C)cnn34)nc2cc1C [Compound 160] | B (B=less than 200 fold, but greater than 20 fold)

Same assay, conditions: CDK7 over CDK5

Row | SMILES | CDK5/CDK7: Selectivity of CDK7 inhibition over CDK5 inhibition
16 | CC(=O)NC1CCc2nn(-c3ccccc3CNc3nc(N4CCC(N)CC4)nc4c(C(C)C)cnn34)cc2C1 (centres unmarked) [Compound 150] | B (B=less than 200 fold, but greater than 20 fold)
17 | CNC(=O)c1cc2cn(-c3ccccc3CNc3nc(N4CCC(N)CC4)nc4c(C(C)C)cnn34)nc2cc1C [Compound 160] | B (B=less than 200 fold, but greater than 20 fold)
18 | CC(C)c1cnn2c(N[C@H](C)c3ccccc3-c3cc4ccccc4[nH]3)nc(N3CCC(N)CC3)nc12 [Compound 188] | C (C=less than 20 fold)

Same assay, conditions: read-out: CDK7 enzymatic activity (IC50 range)

Row | IC50 [nM] | SMILES
19 | < 100 | CC(=O)NC1CCc2nn(-c3ccccc3CNc3nc(N4CCC(N)CC4)nc4c(C(C)C)cnn34)cc2C1 (centres unmarked) [Compound 150]
20 | < 100 | CNC(=O)c1cc2cn(-c3ccccc3CNc3nc(N4CCC(N)CC4)nc4c(C(C)C)cnn34)nc2cc1C [Compound 160]
21 | 100 to 1000 | CC(C)c1cnn2c(N[C@H](C)c3ccccc3-c3cc4ccccc4[nH]3)nc(N3CCC(N)CC3)nc12 [Compound 188]

System: HCT116
Assay: Cellular HCT116 viability assay (CellTiter-Glo, 72 hours)
Type: cell-based
Details: Homo sapiens, HCT-116
Method in brief: (§2)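 Luminescent ATP read-out (CellTiter-Glo) after 72 h compound exposure at 37 °C/5% CO2; duplicate wells; vehicle control DMSO <0.1% final; seeding density set per cell line.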

Row | IC50 [nM] | SMILES
22 | < 1000 | CC(=O)NC1CCc2nn(-c3ccccc3CNc3nc(N4CCC(N)CC4)nc4c(C(C)C)cnn34)cc2C1 (centres unmarked) [Compound 150]
23 | < 1000 | CNC(=O)c1cc2cn(-c3ccccc3CNc3nc(N4CCC(N)CC4)nc4c(C(C)C)cnn34)nc2cc1C [Compound 160]

System: H460
Assay: Cellular H460 viability assay (CellTiter-Glo, 72 hours)
Type: cell-based
Details: Homo sapiens, NCI-H460
Method in brief: as §2

Row | IC50 [nM] | SMILES
24 | < 1000 | CC(=O)NC1CCc2nn(-c3ccccc3CNc3nc(N4CCC(N)CC4)nc4c(C(C)C)cnn34)cc2C1 (centres unmarked) [Compound 150]
25 | < 1000 | CNC(=O)c1cc2cn(-c3ccccc3CNc3nc(N4CCC(N)CC4)nc4c(C(C)C)cnn34)nc2cc1C [Compound 160]
26 | 1000 to 10000 | CC(C)c1cnn2c(N[C@H](C)c3ccccc3-c3cc4ccccc4[nH]3)nc(N3CCC(N)CC3)nc12 [Compound 188]

System: MM.1S
Assay: Cellular MM.1S viability assay (CellTiter-Glo, 72 hours)
Type: cell-based
Details: Homo sapiens, MM1.S
Description: Human T-cell acute lymphoblastic leukemia cell line, MOLT-4 (ATCC, Cat #CRL-1582), Human multiple myeloma cell line, RPMI-8226 (Invitrogen, Cat #22400-089) and MM.1S (ATCC, Cat #CRL-2974), NSCLC (Non-small cell lung cancer) cell line H460 (ATCC, Cat #HTB-177), Human colon colorectal carcinoma cell line HCT116 (ATCC, Cat #CCL-247), Human acute monocytic leukemia cell line MV4-11 (ATCC, Cat #CRL-9591), OVCAR-3 (ATCC, Cat #HTB-161) and A2780 (ECACC, Cat #93112519) were obtained from ATCC. Cells were grown in RPMI-1640 media (Invitrogen, Cat #22400-089) supplemented with 10% FBS (Invitrogen, Cat #10099141) and 1% penicillin/streptomycin (Invitrogen, Cat #15070063) and cultured at 37° C., 5% CO2 in a humidified chamber. All cell lines were routinely tested for mycoplasma.
The effect of the CDK7 inhibitor to inhibit the growth of target cancer cells was evaluated through the 72 hours time period of viability assay. Briefly, the candidate cell line ware plated in 96 well plate at the following density of cells respectively. 1×10^4 cells/well for MOLT-4, RPMI-8226, MV4-11 and MM.1S, 5×10^3 for H460, HCT116 and OVCAR-3 and IX 10^3 for A2780. After 24 hours, the cells were treated with various concentrations of the compound (ranging from 0.0015 uM to 10 uM). DMSO solvent without compound served as a control and final DMSO concentration less than 0.1%. After 72 hours of incubation at 37° C., 5% CO2 incubator, cells were analyzed for the viability using the CellTiter-Glo Luminescent Cell Viability Assay (Promega, Cat #G7570). All viability assays were performed in duplicate and Luminescence was read using an Envision (Perkin Elmer, USA). Data was analyzed using XLfit software.

Row | IC50 [nM] | SMILES
27 | ≤ 1000 | CC(=O)NC1CCc2nn(-c3ccccc3CNc3nc(N4CCC(N)CC4)nc4c(C(C)C)cnn34)cc2C1 (centres unmarked) [Compound 150]
28 | ≤ 1000 | CNC(=O)c1cc2cn(-c3ccccc3CNc3nc(N4CCC(N)CC4)nc4c(C(C)C)cnn34)nc2cc1C [Compound 160]
29 | 1000 to 10000 | CC(C)c1cnn2c(N[C@H](C)c3ccccc3-c3cc4ccccc4[nH]3)nc(N3CCC(N)CC3)nc12 [Compound 188]

System: MV4-11
Assay: Cellular MV4-11 viability assay (CellTiter-Glo, 72 hours)
Type: cell-based
Details: Homo sapiens
Method in brief: as §2

Row | IC50 [nM] | SMILES
30 | < 1000 | CC(=O)NC1CCc2nn(-c3ccccc3CNc3nc(N4CCC(N)CC4)nc4c(C(C)C)cnn34)cc2C1 (centres unmarked) [Compound 150]
31 | < 1000 | CNC(=O)c1cc2cn(-c3ccccc3CNc3nc(N4CCC(N)CC4)nc4c(C(C)C)cnn34)nc2cc1C [Compound 160]
32 | 1000 to 10000 | CC(C)c1cnn2c(N[C@H](C)c3ccccc3-c3cc4ccccc4[nH]3)nc(N3CCC(N)CC3)nc12 [Compound 188]

Source: patent US11945822B2, “Pyrazolo-triazine and/or pyrazolo-pxrimidine derivatives as selective inhibitor of cyclin dependent kinase” (QURIENT CO., LTD., priority 2018, dated 2024)
